Test results reported in patent US20220151962A1, “NOVEL INHIBITORS OF HISTONE DEACETYLASE 10” (Deutsches Krebsforschungszentrum, priority 2019, published 2022).
Where “and” joins values, the source holds several entries; their conditions need not be identical. Equal values may be shown once. Read-outs that look alike come from different tables or passages of the source.

How the values were obtained:
[1] = target: T1, HDAC6 (Homo sapiens, UniProt Q9UBN7); test: HDAC6 (ZMAL) fluorogenic activity assay; type: biochemical; details: read-out: HDAC6 (ZMAL) percent enzyme inhibition
T1 construct: purchased BPS Bioscience 50006
T1 sequence (Q9UBN7 1-1215): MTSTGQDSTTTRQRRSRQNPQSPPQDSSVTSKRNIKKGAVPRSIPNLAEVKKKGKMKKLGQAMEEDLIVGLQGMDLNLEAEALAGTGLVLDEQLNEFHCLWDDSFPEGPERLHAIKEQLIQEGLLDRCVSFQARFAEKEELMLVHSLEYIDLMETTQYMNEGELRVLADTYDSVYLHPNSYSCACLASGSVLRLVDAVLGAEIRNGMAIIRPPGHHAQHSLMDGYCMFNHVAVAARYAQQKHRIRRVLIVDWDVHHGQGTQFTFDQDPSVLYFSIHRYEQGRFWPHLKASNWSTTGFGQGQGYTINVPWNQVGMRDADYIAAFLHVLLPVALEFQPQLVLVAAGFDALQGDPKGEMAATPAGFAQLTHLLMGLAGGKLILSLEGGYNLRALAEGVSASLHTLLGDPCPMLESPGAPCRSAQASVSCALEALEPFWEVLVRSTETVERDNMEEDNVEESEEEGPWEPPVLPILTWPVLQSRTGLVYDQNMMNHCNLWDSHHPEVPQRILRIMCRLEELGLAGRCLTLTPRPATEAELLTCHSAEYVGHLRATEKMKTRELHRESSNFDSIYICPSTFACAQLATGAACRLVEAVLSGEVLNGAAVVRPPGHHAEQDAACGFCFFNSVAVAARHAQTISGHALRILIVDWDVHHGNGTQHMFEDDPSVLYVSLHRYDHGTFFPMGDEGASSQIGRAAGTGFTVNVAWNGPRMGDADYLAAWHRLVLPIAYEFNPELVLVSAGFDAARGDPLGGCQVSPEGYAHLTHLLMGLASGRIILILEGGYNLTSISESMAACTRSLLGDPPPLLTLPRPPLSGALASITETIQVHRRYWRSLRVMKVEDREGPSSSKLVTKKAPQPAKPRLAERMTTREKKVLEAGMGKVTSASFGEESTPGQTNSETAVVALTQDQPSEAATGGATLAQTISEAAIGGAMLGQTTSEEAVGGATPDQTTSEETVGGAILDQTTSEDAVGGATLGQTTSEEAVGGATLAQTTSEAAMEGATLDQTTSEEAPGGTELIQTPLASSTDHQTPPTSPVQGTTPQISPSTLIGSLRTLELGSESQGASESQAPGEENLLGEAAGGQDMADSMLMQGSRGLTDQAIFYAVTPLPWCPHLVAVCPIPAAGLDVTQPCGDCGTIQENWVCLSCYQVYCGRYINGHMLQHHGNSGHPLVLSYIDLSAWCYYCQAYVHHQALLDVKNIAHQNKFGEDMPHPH

[2] = target: T2, TwinStrep-GST-HDAC10 (Homo sapiens, UniProt Q969S8); test: HDAC10 TR-FRET assay (Tubastatin-AF647-Tracer displacement); type: binding
T2 construct: made in house; host or cells: Sf21 insect cells (baculovirus, pFastBac1)
T2 sequence (Q969S8 1-669): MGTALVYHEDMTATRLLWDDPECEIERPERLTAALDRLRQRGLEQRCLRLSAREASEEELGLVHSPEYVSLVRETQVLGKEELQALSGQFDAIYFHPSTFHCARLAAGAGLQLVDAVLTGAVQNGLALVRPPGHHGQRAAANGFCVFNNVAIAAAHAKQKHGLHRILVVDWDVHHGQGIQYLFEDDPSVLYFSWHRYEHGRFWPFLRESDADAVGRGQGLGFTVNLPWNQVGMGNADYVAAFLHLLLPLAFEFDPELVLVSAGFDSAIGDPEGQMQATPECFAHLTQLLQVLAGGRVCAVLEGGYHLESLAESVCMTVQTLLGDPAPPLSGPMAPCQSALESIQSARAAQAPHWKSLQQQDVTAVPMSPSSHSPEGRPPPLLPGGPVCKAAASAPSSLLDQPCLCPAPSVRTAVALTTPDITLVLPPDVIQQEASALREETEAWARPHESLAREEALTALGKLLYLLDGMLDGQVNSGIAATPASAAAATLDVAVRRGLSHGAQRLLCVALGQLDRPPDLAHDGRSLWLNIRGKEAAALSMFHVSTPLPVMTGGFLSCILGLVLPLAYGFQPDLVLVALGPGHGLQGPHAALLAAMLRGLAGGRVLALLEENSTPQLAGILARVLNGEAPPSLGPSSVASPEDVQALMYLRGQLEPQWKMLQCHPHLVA

[3] = target: T3, HDAC1 (Homo sapiens, UniProt Q13547); test: HDAC1 (ZMAL) fluorogenic activity assay; type: biochemical; details: read-out: HDAC1 (ZMAL) percent enzyme inhibition
T3 construct: purchased BPS Bioscience 50051

[4] = target: T4, HDAC8 (Homo sapiens, UniProt Q9BY41); test: HDAC8 (FDL) Fluor de Lys assay; type: biochemical; set-up: obtained from C; Romier (academic laboratory, not a vendor); details: read-out: HDAC8 (FDL) percent enzyme inhibition
T4 sequence (Q9BY41 1-377): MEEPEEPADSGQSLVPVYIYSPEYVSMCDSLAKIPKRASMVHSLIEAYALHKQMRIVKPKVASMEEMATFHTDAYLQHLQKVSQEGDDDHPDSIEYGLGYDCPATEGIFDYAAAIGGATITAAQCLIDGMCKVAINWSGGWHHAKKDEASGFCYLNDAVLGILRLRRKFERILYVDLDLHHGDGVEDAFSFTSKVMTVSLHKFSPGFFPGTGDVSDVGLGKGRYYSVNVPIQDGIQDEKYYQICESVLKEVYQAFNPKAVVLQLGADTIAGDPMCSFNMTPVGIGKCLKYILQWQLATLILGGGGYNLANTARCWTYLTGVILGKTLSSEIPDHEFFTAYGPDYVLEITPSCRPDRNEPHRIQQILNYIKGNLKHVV

[5] = target: T5, zebrafish HDAC10 (Danio rerio, UniProt F1QCV2); test: Zebrafish HDAC10 assay (zHDAC10), Ac-spermidine-AMC substrate; type: biochemical; details: read-out: zHDAC10 percent enzyme inhibition
T5 sequence (F1QCV2 1-675): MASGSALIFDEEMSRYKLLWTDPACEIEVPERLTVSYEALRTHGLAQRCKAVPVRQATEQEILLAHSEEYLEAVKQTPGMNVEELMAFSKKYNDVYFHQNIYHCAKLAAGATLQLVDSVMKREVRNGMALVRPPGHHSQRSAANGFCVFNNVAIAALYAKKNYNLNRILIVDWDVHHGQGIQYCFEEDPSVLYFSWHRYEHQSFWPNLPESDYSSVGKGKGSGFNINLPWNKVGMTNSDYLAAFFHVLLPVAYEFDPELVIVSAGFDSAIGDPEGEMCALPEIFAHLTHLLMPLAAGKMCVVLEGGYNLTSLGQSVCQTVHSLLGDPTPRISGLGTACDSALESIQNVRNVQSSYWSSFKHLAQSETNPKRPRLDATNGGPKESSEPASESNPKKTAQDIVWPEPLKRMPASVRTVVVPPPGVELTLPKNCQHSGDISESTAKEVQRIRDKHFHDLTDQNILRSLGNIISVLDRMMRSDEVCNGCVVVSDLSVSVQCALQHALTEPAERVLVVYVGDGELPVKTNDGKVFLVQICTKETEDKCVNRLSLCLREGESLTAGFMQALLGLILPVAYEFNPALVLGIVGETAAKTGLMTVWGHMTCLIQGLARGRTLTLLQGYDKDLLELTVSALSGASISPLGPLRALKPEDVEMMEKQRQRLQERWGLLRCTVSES

[6] = target: T6, HDAC10-nanoluciferase fusion in HeLa cells (Homo sapiens, UniProt Q969S8); test: BRET intracellular target engagement assay, HDAC10; details: for HDAC10/6 fold selectivity (BRET): HDAC10 over HDAC6, from BRET
T6 sequence (Q969S8 1-669): T2 sequence (Q969S8 1-669)

[7] = target: T7, HDAC6 (2nd catalytic domain)-nanoluciferase fusion in HeLa cells (Homo sapiens, UniProt Q9UBN7); test: BRET intracellular target engagement assay, HDAC6
T7 sequence (Q9UBN7 482-800 limits assumed): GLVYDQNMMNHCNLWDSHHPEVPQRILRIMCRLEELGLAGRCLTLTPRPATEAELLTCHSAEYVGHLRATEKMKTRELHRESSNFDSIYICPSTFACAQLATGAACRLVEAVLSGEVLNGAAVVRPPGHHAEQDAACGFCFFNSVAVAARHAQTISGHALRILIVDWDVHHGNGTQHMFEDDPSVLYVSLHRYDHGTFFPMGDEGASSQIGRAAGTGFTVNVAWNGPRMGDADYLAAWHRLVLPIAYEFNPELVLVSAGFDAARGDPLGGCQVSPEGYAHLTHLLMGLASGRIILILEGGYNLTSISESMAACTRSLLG

[8] = target: T3, HDAC1; test: HDAC-Glo I/II assay, HDAC1; type: biochemical; details: recombinant human HDAC1, HDAC-Glo; read-out: pIC50 HDAC1 Glo (converted)
[9] = target: T4, HDAC8; test: HDAC-Glo I/II assay, HDAC8; type: biochemical; set-up: purchased BPS Bioscience 50008; details: recombinant human HDAC8, HDAC-Glo; read-out: pIC50 HDAC8 Glo (converted)
[10] = target: T8, HDAC2 (Homo sapiens, UniProt Q92769); test: HDAC-Glo I/II assay, HDAC2; type: biochemical; details: recombinant human HDAC2, HDAC-Glo; read-out: pIC50 HDAC2 Glo (converted)
T8 construct: purchased BPS Bioscience 50002

[11] = target: T1, HDAC6; test: HDAC-Glo I/II assay, HDAC6; type: biochemical; details: recombinant human HDAC6, HDAC-Glo; read-out: pIC50 HDAC6 Glo (converted)
[12] = target: T9, HDAC3/NcoR2 complex (Homo sapiens, UniProt O15379); test: HDAC-Glo I/II assay, HDAC3/NcoR2 complex; type: biochemical; details: recombinant human HDAC3/NcoR2 complex, read-out: pIC50 HDAC3 Glo (converted)
T9 construct: purchased BPS Bioscience 50003

[13] = TR-FRET, 60 min at rt, read-out: pIC50 HDAC10 FRET (converted)

T3 sequence (Q13547 whole entry): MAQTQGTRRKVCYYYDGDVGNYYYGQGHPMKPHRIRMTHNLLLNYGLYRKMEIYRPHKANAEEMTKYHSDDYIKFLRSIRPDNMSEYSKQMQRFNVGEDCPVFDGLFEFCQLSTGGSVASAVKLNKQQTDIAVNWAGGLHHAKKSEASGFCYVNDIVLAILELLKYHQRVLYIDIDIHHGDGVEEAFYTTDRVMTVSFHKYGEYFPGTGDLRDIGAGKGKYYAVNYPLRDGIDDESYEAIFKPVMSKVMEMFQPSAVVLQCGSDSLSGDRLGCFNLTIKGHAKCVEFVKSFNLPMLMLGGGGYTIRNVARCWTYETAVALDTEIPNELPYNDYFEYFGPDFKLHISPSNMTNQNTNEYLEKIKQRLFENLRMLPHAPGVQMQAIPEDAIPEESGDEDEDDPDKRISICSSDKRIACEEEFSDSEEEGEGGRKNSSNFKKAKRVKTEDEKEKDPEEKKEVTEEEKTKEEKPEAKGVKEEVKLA
T9 sequence (O15379 whole entry): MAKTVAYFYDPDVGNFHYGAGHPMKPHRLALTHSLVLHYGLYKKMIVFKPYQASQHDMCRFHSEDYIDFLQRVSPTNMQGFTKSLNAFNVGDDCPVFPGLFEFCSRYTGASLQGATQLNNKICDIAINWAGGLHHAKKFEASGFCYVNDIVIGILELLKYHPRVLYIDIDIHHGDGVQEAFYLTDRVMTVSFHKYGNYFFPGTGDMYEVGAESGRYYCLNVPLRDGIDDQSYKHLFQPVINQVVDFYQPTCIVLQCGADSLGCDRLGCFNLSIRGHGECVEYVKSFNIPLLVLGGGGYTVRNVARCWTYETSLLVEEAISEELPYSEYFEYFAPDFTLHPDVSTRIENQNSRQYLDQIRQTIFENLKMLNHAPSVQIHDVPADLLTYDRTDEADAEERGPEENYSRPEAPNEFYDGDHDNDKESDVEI
T9 sequence (Q9Y618 395-489 partner limits assumed): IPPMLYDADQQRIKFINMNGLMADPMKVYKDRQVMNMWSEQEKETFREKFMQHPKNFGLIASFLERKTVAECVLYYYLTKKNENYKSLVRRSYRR
T8 sequence (Q92769 whole entry): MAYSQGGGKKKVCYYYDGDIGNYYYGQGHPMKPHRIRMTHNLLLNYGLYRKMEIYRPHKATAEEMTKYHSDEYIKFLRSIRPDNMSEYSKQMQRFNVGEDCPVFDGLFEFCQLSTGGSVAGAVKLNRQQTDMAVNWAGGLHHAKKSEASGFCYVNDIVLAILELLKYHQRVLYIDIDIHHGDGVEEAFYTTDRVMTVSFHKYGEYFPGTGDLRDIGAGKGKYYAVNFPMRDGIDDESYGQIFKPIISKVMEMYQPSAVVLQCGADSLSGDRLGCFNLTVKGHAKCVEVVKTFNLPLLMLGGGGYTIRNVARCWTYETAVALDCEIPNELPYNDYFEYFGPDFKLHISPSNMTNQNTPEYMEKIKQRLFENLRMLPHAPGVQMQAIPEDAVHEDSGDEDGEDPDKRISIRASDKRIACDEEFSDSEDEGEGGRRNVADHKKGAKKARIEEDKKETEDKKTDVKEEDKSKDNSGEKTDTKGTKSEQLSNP

| SMILES | inhibition at 1 µM [1] [%] | inhibition at 10 µM [1] [%] | inhibition at 1 µM [3] [%] | inhibition at 10 µM [3] [%] | inhibition at 1 µM [4] [%] | inhibition at 10 µM [4] [%] | inhibition at 0.1 µM [5] [%] | inhibition at 1 µM [5] [%] | inhibition at 10 µM [5] [%] | IC50 [6] [µM] | IC50 [7] [µM] | IC50 [8] [µM] | IC50 [9] [µM] | IC50 [10] [µM] | IC50 [11] [µM] | IC50 [12] [µM] | further results |
| --- | --- | --- | --- | --- | --- | --- | --- | --- | --- | --- | --- | --- | --- | --- | --- | --- | --- |
| O=C(NO)C1CCN(CC(c2ccccc2)c2ccccc2)CC1 [DH40, 1-(2,2-Diphenylethyl)-N-hydroxypiperidine-4-carboxamide] | 19 | 65 | -7 | 8 | 42 | 75 | 1 | 9 | 27 |  |  |  |  |  |  |  | inhibition at 50 µM ([1]; at 50 μM): 88%; IC50 ([2]; two separate measurements, each made in triplicate, read-out: HDAC10 FRET IC50): 2.32 µM and 2.97 µM; inhibition at 50 µM ([3]; at 50 μM): 24% |
| O=C(NO)C1CCN(CCc2ccc(Br)cc2)CC1 [DH67, 1-(4-Bromophenethyl)-N-hydroxypiperidine-4-carboxamide] | -4 | 18 | 7 | 6 | 33 | 69 | 7 | 40 | 67 | 0.375 |  |  |  |  |  |  |  |
| O=C(NO)C1CCN(CCc2cccc(Br)c2)CC1 [DH71, 1-(3-Bromophenethyl)-N-hydroxypiperidine-4-carboxamide] | -2 | 28 | -5 | 6 | 27 | 70 | 0 | 10 | 61 | 0.391 |  |  |  |  |  |  |  |

More lines, main results first:

| inhibition at 1 µM [1] [%] | inhibition at 10 µM [1] [%] | inhibition at 1 µM [3] [%] | inhibition at 10 µM [3] [%] | inhibition at 1 µM [4] [%] | inhibition at 10 µM [4] [%] | inhibition at 0.1 µM [5] [%] | inhibition at 1 µM [5] [%] | inhibition at 10 µM [5] [%] | IC50 [6] [µM] | IC50 [7] [µM] | IC50 [8] [µM] | IC50 [9] [µM] | IC50 [10] [µM] | IC50 [11] [µM] | IC50 [12] [µM] | SMILES | further results |
| --- | --- | --- | --- | --- | --- | --- | --- | --- | --- | --- | --- | --- | --- | --- | --- | --- | --- |
|  |  |  |  |  |  |  |  |  | 2 | > 39.8 | 398 | 5.01 | > 200 | 12.6 | < 200 | CC(C)N(CCCC(=O)NO)CCC(=O)Nc1ccccc1 [DKFZ-715, 4-(Isopropyl(3-oxo-3-(phenylamino)propyl)amino)-N-hydroxybutanamide] | IC50 [2, 13]: 0.631 µM; HDAC10/6 fold selectivity (BRET) [6]: >21 fold |
|  |  |  |  |  |  |  |  |  | 1 | > 39.8 | 79.4 | 7.94 | > 200 | 5.01 | ~200 | CCCN(CCCC(=O)NO)CCC(=O)Nc1ccccc1 [DKFZ-716, 4-(Propyl(3-oxo-3-(phenylamino)propyl)amino)-N-hydroxybutanamide] | IC50 [2, 13]: 0.316 µM; HDAC10/6 fold selectivity (BRET) [6]: ~366 fold |
|  |  |  |  |  |  |  |  |  |  | 3.98 | 2 | 0.794 | 3.98 | 0.631 |  | CN(CCCC(=O)NO)CCNC(=O)c1c2ccccc2cc2ccccc12 [DKFZ-771, N-(2-((4-(Hydroxyamino)-4-oxobutyl)(methyl)amino)ethyl)anthracene-9-carboxamide] |  |
|  |  |  |  |  |  |  |  |  |  | > 39.8 | 50.1 | 25.1 |  | 12.6 | > 100 | CN(CCCC(=O)NO)CCCC(=O)Nc1ccccc1 [DKFZ-775, N-Hydroxy-4-(methyl(4-oxo-4-(phenylamino)butyl)amino)butanamide] |  |
